As usually defined, the melting point is the temperature, or range, at which the solid turns liquid.

Turning to `O=C(Nc1ccc(Br)cc1)c1csc(Nc2c(Cl)cccc2C(F)(F)F)n1` [Example 69], the melting point was 262 to 264 °C.
Then `CC(C)c1ccc(NC(=O)c2csc(Nc3c(Cl)cccc3C(F)(F)F)n2)cc1` [Example 70], with 216 to 218 °C.
Then `O=C(Nc1ccc(C(F)(F)F)cc1)c1csc(Nc2c(Cl)cccc2C(F)(F)F)n1` [Example 71], with 243 to 244 °C; and `FC(F)(F)c1ccc2[nH]c(-c3csc(Nc4ccccc4C(F)(F)F)n3)nc2c1` [Example 72], with 211 to 212 °C; and `FC(F)(F)c1ccc2[nH]c(-c3csc(Nc4c(Cl)cccc4C(F)(F)F)n3)nc2c1` [Example 73], with 188 to 210 °C.
For the compound `Clc1cccc(Cl)c1Nc1nc(-c2nc3cc(Br)ccc3[nH]2)cs1` [Example 74], the melting point was in the range of 267 to 268 °C.
Then `O=C(Nc1ccc(C(F)(F)F)cc1)c1csc(Nc2ncccc2Cl)n1` [Example 75], with 186 to 187 °C; and `O=C(Nc1ccc(Br)cc1)c1csc(Nc2ncccc2Cl)n1` [Example 76], with 226 to 258 °C; and `O=C(Nc1ccc(Br)cc1)c1coc(Cc2c(Cl)cccc2Cl)n1` [Example 78], with 164 to 165 °C.
